Active and inactive are the calls of the source.
Legend:
Paired box protein Pax-8 = Paired box protein Pax-8 (Homo sapiens, UniProt Q06710); assay: inhibitors of PAX8-driven TPO luciferase reporter, dose response, RMG-I cells, cherry-pick (AID 687027); type: functional, cell-based;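 further: luciferase reporter driven by Pax8 target thyroperoxidase promoter measured by SteadyGlo luminescence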
Large T antigen = Large T antigen (Simian virus 40, UniProt P03070); type: functional, Betapolyomavirus macacae;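 further: Confirmatory-stage PubChem screen for compounds that inhibit SV40 T antigen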
[1] = biological target: Bifunctional protein GlmU (Mycobacterium tuberculosis, UniProt P9WMN3); assay: Inhibitors of Mycobacterial Glucosamine-1-phosphate acetyl transferase (GlmU). Secondary screen.; design: species or system Mycobacterium tuberculosis H37Rv
[2] = biological target: RNA-editing ligase 1, mitochondrial (Trypanosoma brucei brucei, UniProt P86926); assay: TbREL1 ligase inhibitors, dose response, biochemical, fluorescence, Trypanosoma brucei (AID 1117295); type: functional
Cytochrome P450 2C9 = Cytochrome P450 2C9 (Homo sapiens, UniProt P11712)
[3] = NIH-3T3 fibroblast cytotoxicity, dose response, cytotoxicity control, cell-based, fluorescence, Alamar Blue, secondary assay (AID 2327); type: functional;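 further: NIH-3T3 mouse fibroblasts cultured with fluconazole at 8 µg/mL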
HEK293 = assay: SAR Analysis of small molecule inhibitors of T-cell specific antigen receptor-induced NF-kB activation in a HEK-293T cell line using a luminescence assay. [Related pubchem assays (depositor defined):AID435003, AID435012, AID489026]; type: functional, cell-based; conditions: Homo sapiens
[4] = biological target: Cyclin-dependent kinase 2 (Homo sapiens, UniProt P24941); type: functional;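 further: CDK2 measured as one member of a broad kinome profiling panel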
[5] = biological target: Serine/threonine-protein kinase PAK 4 (Homo sapiens, UniProt O96013); type: functional;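 further: value obtained within a kinome profiling panel in which PAK4 was one of the panel members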
[6] = biological target: Calcium/calmodulin-dependent protein kinase type II subunit delta (Homo sapiens, UniProt Q13557); type: functional
[7] = biological target: Fibroblast growth factor receptor 1 (Homo sapiens, UniProt P11362); type: functional
[8] = biological target: Casein kinase I isoform alpha (Homo sapiens, UniProt P48729); type: functional
[9] = biological target: Tyrosine-protein kinase Lyn (Homo sapiens, UniProt P07948); type: functional;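 further: lyn as one member of a kinase panel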
[10] = biological target: Testis-specific serine/threonine-protein kinase 1 (Homo sapiens, UniProt Q9BXA7); type: functional
[11] = biological target: Proto-oncogene tyrosine-protein kinase Src (Homo sapiens, UniProt P12931); type: functional;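 further: SRC entry within a kinome-wide kinase profiling panel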
[12] = biological target: Receptor tyrosine-protein kinase erbB-2 (Homo sapiens, UniProt P04626); assay: Navigating the Kinome. Panel member name: ERBB2; type: functional
[13] = biological target: Serine/threonine-protein kinase Nek4 (Homo sapiens, UniProt P51957); type: functional
[14] = biological target: Dual specificity tyrosine-phosphorylation-regulated kinase 4 (Homo sapiens, UniProt Q9NR20); type: functional
[15] = biological target: cAMP-dependent protein kinase catalytic subunit PRKX (Homo sapiens, UniProt P51817); type: functional
[16] = biological target: Protein-tyrosine kinase 6 (Homo sapiens, UniProt Q13882); type: functional
[17] = biological target: Cyclin-dependent kinase 1 (Homo sapiens, UniProt P06493); type: functional;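 further: Kinome-wide panel profiling, with the target listed as panel member CDC2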
[18] = biological target: Receptor tyrosine-protein kinase erbB-4 (Homo sapiens, UniProt Q15303); type: functional;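 further: ERBB4 member of a kinome-wide kinase profiling panel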
[19] = biological target: cAMP-dependent protein kinase catalytic subunit alpha (Homo sapiens, UniProt P17612); type: functional
[20] = biological target: Lymphokine-activated killer T-cell-originated protein kinase (Homo sapiens, UniProt Q96KB5); type: functional;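 further: value comes from a kinase panel screen in which TOPK was one of the panel members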
[21] = biological target: Serine/threonine-protein kinase BRSK1 (Homo sapiens, UniProt Q8TDC3); type: functional;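 further: measured within a kinome-wide kinase panel, with the target listed as KIAA1811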
[22] = biological target: Tyrosine-protein kinase receptor UFO (Homo sapiens, UniProt P30530); type: functional
[23] = biological target: T1, Sentrin-specific protease 7 (Homo sapiens, UniProt Q9BQF6); type: functional;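 further: Luminescence-based dose-response confirmation of ultra-high-throughput screening hits, measuring inhibition of SENP7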
T1 sequence (Q9BQF6 whole entry): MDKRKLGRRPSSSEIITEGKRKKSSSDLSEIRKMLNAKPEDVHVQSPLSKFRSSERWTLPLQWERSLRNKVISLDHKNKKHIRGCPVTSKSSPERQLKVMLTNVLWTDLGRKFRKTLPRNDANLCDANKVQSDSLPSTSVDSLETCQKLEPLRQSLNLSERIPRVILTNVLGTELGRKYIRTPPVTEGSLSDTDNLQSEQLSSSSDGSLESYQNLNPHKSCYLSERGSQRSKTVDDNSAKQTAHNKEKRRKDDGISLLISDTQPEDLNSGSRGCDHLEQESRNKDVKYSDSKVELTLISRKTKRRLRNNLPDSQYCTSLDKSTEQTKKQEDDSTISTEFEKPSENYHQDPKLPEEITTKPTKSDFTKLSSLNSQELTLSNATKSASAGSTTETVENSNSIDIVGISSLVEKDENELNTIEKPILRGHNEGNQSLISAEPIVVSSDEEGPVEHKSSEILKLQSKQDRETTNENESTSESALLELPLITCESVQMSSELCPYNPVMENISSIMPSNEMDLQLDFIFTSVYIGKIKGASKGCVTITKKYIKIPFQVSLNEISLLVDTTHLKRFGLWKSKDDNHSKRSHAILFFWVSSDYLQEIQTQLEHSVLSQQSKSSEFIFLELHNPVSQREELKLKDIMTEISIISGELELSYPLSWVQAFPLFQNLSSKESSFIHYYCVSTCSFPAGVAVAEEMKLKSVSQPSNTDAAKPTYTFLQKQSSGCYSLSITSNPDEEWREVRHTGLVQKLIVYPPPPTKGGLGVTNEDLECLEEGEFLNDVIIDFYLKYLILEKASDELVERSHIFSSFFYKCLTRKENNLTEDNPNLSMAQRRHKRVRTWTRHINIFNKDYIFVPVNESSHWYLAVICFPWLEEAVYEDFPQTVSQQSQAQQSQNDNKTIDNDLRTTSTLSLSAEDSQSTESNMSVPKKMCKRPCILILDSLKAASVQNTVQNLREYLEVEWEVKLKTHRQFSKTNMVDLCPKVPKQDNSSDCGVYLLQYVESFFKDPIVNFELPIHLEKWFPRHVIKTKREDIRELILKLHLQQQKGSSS

[24] = Luminescence Cell-Based Dose Response HTS to Identify Activators of Luciferase Translation or Activity in H4 […] Cells. [Related pubchem assays: 1829 (Project Summary), 1814 (Primary HTS)]; type: functional
[25] = biological target: Glucose-6-phosphate 1-dehydrogenase (Homo sapiens, UniProt P11413); assay: human G6PD enzyme inhibitors, dose response, selectivity assay for P. falciparum G6PD inhibitor project, biochemical, fluorescence (AID 504792); type: functional
Sequence of Glucose-6-phosphate 1-dehydrogenase (P11413 whole entry): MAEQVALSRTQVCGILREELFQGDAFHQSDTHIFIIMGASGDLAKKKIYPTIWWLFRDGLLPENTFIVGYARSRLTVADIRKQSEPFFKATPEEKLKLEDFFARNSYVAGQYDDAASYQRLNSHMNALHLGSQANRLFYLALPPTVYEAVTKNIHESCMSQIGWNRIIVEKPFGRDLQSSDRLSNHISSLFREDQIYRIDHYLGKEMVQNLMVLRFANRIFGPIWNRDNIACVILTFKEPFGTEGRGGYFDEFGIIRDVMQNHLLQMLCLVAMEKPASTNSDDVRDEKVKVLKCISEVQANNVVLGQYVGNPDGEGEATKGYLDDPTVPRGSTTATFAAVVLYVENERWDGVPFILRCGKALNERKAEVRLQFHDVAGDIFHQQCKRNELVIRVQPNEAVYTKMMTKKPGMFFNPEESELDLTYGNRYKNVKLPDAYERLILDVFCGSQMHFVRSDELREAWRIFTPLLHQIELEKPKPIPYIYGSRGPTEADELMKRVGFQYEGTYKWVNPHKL

Sequence of Cyclin-dependent kinase 1 (P06493 whole entry): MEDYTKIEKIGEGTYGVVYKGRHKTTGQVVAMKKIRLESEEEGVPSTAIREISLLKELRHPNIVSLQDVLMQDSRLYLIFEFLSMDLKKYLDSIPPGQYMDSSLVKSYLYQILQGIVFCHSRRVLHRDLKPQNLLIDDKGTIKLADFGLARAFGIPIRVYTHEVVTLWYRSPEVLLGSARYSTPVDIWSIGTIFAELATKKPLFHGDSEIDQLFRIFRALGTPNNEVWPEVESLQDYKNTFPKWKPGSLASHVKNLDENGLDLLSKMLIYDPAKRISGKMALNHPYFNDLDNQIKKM
Sequence of Tyrosine-protein kinase Lyn (P07948 whole entry): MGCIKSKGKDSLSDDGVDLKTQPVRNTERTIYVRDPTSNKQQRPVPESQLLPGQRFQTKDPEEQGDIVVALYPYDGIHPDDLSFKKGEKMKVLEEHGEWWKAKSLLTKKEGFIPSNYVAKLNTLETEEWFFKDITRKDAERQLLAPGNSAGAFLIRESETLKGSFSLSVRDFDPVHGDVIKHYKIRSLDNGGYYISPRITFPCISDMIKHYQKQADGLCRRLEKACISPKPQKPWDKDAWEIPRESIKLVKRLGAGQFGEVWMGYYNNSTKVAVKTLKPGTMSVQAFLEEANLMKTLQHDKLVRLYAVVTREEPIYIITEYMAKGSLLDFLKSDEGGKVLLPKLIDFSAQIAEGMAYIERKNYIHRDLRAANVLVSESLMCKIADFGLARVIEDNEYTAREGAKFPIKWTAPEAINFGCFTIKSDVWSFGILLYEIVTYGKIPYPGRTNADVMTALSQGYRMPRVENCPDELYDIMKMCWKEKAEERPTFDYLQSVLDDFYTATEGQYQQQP
Sequence of cAMP-dependent protein kinase catalytic subunit PRKX (P51817 whole entry): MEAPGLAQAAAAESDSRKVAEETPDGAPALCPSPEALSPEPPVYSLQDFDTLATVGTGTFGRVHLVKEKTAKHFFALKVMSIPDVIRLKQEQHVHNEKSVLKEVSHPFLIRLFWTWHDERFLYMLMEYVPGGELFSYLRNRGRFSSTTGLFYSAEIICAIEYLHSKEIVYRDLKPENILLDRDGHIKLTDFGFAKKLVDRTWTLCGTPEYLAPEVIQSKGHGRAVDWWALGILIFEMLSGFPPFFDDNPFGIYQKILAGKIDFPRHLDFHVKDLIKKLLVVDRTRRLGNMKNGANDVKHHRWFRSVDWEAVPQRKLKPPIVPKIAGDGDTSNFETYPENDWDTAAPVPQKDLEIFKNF
Sequence of Proto-oncogene tyrosine-protein kinase Src (P12931 2-536 limits assumed): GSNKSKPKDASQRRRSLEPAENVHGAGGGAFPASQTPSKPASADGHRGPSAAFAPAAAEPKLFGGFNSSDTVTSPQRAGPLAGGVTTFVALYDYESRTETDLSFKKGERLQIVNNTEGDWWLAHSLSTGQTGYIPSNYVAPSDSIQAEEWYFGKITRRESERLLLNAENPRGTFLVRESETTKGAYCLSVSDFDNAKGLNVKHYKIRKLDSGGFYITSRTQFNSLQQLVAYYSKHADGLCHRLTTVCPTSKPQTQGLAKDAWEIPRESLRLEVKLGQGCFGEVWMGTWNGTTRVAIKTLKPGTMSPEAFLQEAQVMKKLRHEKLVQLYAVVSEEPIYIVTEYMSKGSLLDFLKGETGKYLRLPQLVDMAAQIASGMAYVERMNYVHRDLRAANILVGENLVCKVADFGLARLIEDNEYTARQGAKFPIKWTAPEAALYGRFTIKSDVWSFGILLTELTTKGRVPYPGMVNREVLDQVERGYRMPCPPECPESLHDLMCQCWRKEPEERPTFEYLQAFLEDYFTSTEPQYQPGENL
Sequence of Fibroblast growth factor receptor 1 (P11362 whole entry, canonical isoform): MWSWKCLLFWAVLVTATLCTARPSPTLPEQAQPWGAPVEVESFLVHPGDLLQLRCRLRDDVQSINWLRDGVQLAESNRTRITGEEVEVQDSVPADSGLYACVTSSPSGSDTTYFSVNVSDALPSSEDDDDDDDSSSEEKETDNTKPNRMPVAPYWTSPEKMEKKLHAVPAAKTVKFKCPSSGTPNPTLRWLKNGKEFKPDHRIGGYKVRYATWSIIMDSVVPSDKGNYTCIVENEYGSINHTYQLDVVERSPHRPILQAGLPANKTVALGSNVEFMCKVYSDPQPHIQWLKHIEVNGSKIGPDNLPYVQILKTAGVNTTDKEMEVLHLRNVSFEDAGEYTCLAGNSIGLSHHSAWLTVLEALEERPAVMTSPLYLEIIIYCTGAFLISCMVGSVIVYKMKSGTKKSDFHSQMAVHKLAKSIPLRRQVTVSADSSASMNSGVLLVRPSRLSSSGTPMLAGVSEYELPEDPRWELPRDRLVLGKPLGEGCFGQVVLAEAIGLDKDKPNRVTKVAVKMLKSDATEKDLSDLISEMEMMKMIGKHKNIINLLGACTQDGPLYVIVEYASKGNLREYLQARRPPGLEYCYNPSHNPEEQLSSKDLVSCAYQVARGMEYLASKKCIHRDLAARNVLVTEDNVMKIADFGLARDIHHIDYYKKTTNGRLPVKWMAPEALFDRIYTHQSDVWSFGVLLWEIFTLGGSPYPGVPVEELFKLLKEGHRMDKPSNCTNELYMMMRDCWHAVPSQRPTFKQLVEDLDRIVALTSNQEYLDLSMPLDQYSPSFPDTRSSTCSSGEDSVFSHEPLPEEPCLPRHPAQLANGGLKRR
Sequence of Dual specificity tyrosine-phosphorylation-regulated kinase 4 (Q9NR20 whole entry): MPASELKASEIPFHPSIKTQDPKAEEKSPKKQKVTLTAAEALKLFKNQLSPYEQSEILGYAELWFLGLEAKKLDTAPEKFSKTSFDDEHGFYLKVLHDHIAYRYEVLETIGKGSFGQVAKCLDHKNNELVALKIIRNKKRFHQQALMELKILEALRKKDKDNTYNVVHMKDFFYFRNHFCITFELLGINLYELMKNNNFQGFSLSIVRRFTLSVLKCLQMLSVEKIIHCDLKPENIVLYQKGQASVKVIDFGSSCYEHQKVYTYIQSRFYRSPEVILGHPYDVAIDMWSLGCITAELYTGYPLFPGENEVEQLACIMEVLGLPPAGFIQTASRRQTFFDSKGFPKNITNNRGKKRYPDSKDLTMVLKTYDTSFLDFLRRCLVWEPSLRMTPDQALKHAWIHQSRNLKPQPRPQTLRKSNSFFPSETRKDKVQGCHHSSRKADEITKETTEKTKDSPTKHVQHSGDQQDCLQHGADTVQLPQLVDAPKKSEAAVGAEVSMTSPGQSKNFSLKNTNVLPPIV
Sequence of Receptor tyrosine-protein kinase erbB-2 (P04626 whole entry): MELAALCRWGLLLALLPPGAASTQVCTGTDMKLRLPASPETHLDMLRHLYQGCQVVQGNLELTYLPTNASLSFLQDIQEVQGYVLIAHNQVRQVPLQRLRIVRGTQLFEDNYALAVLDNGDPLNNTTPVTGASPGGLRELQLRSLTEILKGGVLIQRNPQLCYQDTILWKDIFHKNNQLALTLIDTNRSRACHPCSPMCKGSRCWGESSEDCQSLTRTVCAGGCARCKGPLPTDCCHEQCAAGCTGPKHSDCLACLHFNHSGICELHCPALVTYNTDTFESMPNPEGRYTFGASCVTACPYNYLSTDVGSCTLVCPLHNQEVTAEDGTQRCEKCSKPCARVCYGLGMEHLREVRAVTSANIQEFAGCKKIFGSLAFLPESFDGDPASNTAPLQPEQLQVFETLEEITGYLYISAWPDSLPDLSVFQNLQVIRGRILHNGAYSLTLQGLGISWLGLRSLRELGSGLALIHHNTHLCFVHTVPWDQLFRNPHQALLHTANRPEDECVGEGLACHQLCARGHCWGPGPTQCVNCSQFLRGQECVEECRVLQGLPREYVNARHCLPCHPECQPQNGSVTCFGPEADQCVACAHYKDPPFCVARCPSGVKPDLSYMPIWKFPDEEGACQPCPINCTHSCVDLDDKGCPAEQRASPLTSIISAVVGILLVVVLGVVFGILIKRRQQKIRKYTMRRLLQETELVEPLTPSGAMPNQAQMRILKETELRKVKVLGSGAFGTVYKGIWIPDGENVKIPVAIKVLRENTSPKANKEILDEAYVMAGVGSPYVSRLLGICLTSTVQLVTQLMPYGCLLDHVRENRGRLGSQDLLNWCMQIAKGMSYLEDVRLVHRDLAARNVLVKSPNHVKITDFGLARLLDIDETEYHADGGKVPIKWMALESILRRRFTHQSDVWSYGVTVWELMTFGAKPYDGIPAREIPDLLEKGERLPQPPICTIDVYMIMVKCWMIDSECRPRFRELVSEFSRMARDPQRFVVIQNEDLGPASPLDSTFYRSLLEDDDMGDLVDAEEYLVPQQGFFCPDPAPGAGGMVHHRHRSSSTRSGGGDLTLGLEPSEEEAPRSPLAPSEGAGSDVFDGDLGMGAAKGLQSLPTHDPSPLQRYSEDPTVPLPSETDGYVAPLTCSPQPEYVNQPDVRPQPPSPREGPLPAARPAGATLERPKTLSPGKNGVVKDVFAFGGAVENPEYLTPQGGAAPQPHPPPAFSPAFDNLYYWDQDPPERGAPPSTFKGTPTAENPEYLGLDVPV

In the case of CCC(=O)NC(c1ccc(C)cc1)c1ccc2cccnc2c1O (centres undefined), the AC50 (Paired box protein Pax-8) is reported as 1.81 µM (active).
In the case of N/C(=N\N=C/c1ccc(-c2ccc(O)c(C(=O)O)c2)o1)N[N+](=O)[O-], the IC50 (Large T antigen) is reported as 25.4 µM (active), the IC50 [1] is reported as 28.4 µM (active) and the IC50 [2] is reported as 21.2 µM (inactive). The AC50 (Cytochrome P450 2C9) was 7.94 µM (inconclusive).
For CCCC(=O)NC(c1ccc(Cl)cc1)c1ccc2cccnc2c1O (centres undefined), the EC50 [3] was 18 µM (active) and the IC50 (HEK293) was 3.72 µM (active).
In the case of Cc1cccc(NC(=O)Nc2ccc3c(c2)CCc2sc4ncnc(N)c4c2-3)c1, the Ki [4] is reported as > 7.94 µM (inactive), the Ki [5] is reported as > 5.01 µM (inactive) and the Ki [6] is reported as > 6.31 µM (inactive). For the same molecule, the Ki [7] was 2.51 µM (active), the Ki [8] was > 6.31 µM (inactive) and the Ki [9] was 0.126 µM (active). The Ki [10] was > 1.58 µM (inactive), the Ki [11] was > 2 µM (inactive) and the Ki [12] was > 1.58 µM (inactive). The Ki [13] was > 6.31 µM (inactive), the Ki [14] was 6.31 µM (active) and the Ki [15] was > 1.58 µM (inactive). For the same molecule, the Ki [16] was > 2.51 µM (inactive), the Ki [17] was > 7.94 µM (inactive) and the Ki [18] was > 3.98 µM (inactive). The Ki [19] was > 7.94 µM (inactive), the Ki [20] was 3.16 µM (active) and the Ki [21] was 3.16 µM (active). For the same molecule, the Ki [22] was 0.0158 µM (active).
For CC(=O)N(/N=C1\Sc2ccccc2C1=O)c1ccccc1C, the IC50 [23] was 3.79 µM (active).
In the case of Cc1ccc(-n2sc3ccccc3c2=O)cc1, the EC50 [24] is reported as 23.3 µM (active) and the IC50 [25] is reported as 30.1 µM (inactive).

— ChEMBL document CHEMBL1201862, “PubChem BioAssay data set” (2004)
